Experiment [1] deals with Ba/F3 cells expressing EGFR L858R/C797S (EGFR LC). Briefly: Inhibition of proliferation of Ba/F3 cells expressing EGFR L858R/C797S (CellTiter-Glo, 72 h). The experiment is classed as cell-based. Particulars: Mus musculus, BaF3, 72 hours treatment. As to the method:
(§1) The following experiment was performed to evaluate the inhibitory activity of the compounds according to the present invention on the proliferation of Ba/F3 cells expressing EGFR Del19/C797S (EGFR DC) and EGFR L858R/C797S (EGFR LC) mutations.
(§2) Ba/F3 cells were cultured using medium (RPMI-1640) containing 10% fetal bovine serum (FBS) and 5 ng/ml IL-3 (R&D Systems). The transduced Ba/F3 cells were cultured by adding 1 μg/ml puromycin (Invitrogen) to the same medium.
(§3) 24 hours prior to treatment with compounds, 3,000 to 5,000 cells were seeded on a well plate (white clear bottom 96 well plate, Corning). The compounds were diluted in dimethyl sulfoxide (3-fold dilution, total of 12 concentrations) and injected at 1 μl each so that the final concentration was 0.2 nM to 5 μM. After 72 hours post treatment with compounds, living cells were stored at room temperature for 10 minutes using CellTiter-Glo luminescent cell-viability reagent (Promega), and the luminescence intensity thereof was measured using a reader (Synergy Neo, Biotek). Each test was repeated three times. The result values were calculated as a cell growth rate (%) compared to the control group. A graph was created using the GraphPad Prism version 8.3.0 program, and GI50 values were calculated.
(In ATP-based viability assays light output follows the ATP content of the culture.)

Experiment [2] relates to Ba/F3 cells expressing EGFR Del19/C797S (EGFR DC). In words: Inhibition of proliferation of Ba/F3 cells expressing EGFR Del19/C797S (CellTiter-Glo, 72 h). The experiment is classed as cell-based. The following applies: Mus musculus, BaF3, 72 hours treatment. As to the method:
as §1, §2, §3

We go through 16 molecules from patent US20250368635A1, “HETEROARYL DERIVATIVE COMPOUND, AND USES THEREOF” (VORONOI, INC., priority 2022, published 2025).

Consider `COc1cc(N2CCC3(CC2)CCN(C(C)(C)CF)CC3)c(-c2cn(C)nc2F)cc1Nc1cc(N2OCC[C@@H]2c2cccc(F)c2F)ncn1` [Example 1, (R)-6-(3-(2,3-difluorophenyl)isoxazolidin-2-yl)-N-(5-(3-fluoro-1-methyl-1H-pyrazol-4-yl)-4-(9-(1-fluoro-2-methylpropan-2-yl)-3,9-diazaspiro[5.5]undecan-3-yl)-2-methoxyphenyl)pyrimidin-4-amine], for which the GI50 in experiment [1] and in experiment [2] was less than 100 nM throughout. Turning to `COc1cc(N2CCC3(CC2)CCN(C(C)(C)CF)CC3)c(-c2cnn(C)c2)cc1Nc1cc(N2OCC[C@@H]2c2ccccc2)ncn1` [Example 10, (R)-N-(4-(9-(1-fluoro-2-methylpropan-2-yl)-3,9-diazaspiro[5.5]undecan-3-yl)-2-methoxy-5-(1-methyl-1H-pyrazol-4-yl)phenyl)-6-(3-phenylisoxazolidin-2-yl)pyrimidin-4-amine], the GI50 in experiment [1] and in experiment [2] was less than 100 nM each time. In the case of `COc1cc(N2CC3(CCN(C(C)(C)CF)CC3)C2)c(-c2cnn(C)c2)cc1Nc1cc(N2OCC[C@@H]2c2cccc(F)c2F)ncn1` [Example 14, (R)-6-(3-(2,3-difluorophenyl)isoxazolidin-2-yl)-N-(4-(7-(1-fluoro-2-methylpropan-2-yl)-2,7-diazaspiro[3.5]nonan-2-yl)-2-methoxy-5-(1-methyl-1H-pyrazol-4-yl)phenyl)pyrimidin-4-amine], the concentration for 50% growth inhibition (GI50) in experiment [1] and in experiment [2] was less than 100 nM each time. On to `COc1cc(N2CCC3(CCOCC3)CC2)c(-c2cnn(C)c2)cc1Nc1cc(N2OCC[C@@H]2c2cccc(F)c2F)ncn1` [Example 28, (R)-6-(3-(2,3-difluorophenyl)isoxazolidin-2-yl)-N-(2-methoxy-5-(1-methyl-1H-pyrazol-4-yl)-4-(3-oxa-9-azaspiro[5.5]undecan-9-yl)phenyl)pyrimidin-4-amine], for which the GI50 in experiment [1] and in experiment [2] was less than 100 nM throughout. On to `COc1cc(N2CCC3(CC2)CC(OC)C3)c(-c2cnn(C)c2)cc1Nc1cc(N2OCC[C@@H]2c2cccc(F)c2F)ncn1` [Example 30, (R)-6-(3-(2,3-difluorophenyl)isoxazolidin-2-yl)-N-(2-methoxy-4-(2-methoxy-7-azaspiro[3.5]nonan-7-yl)-5-(1-methyl-1H-pyrazol-4-yl)phenyl)pyrimidin-4-amine], for which the GI50 in experiment [1] and in experiment [2] was less than 100 nM in each case. For `COc1cc(N2CCC3(CC2)CC3(F)F)c(-c2cnn(C)c2)cc1Nc1cc(N2OCC[C@@H]2c2cccc(F)c2F)ncn1` [Example 32, (R)-N-(4-(1,1-difluoro-6-azaspiro[2.5]octan-6-yl)-2-methoxy-5-(1-methyl-1H-pyrazol-4-yl)phenyl)-6-(3-(2,3-difluorophenyl)isoxazolidin-2-yl)pyrimidin-4-amine], the 50% growth inhibitory concentration (GI50) in experiment [1] and in experiment [2] was 100 to 1000 nM throughout. On to `COc1cc(N2CCC3C(C2)C3(F)F)c(-c2cnn(C)c2)cc1Nc1cc(N2OCC[C@@H]2c2cccc(F)c2F)ncn1` (stereo partly drawn) [Example 41, N-(4-(7,7-difluoro-3-azabicyclo[4.1.0]heptan-3-yl)-2-methoxy-5-(1-methyl-1H-pyrazol-4-yl)phenyl)-6-((R)-3-(2,3-difluorophenyl)isoxazolidin-2-yl)pyrimidin-4-amine], for which the GI50 in experiment [1] and in experiment [2] was 100 to 1000 nM throughout. Regarding `COc1cc(N2CCC3(CCN(CCF)CC3)CC2)c(-c2cnn(C)c2)cc1Nc1cc(N2OCC[C@@H]2c2cccc(F)c2F)ncn1` [Example 50, (R)-6-(3-(2,3-difluorophenyl)isoxazolidin-2-yl)-N-(4-(9-(2-fluoroethyl)-3,9-diazaspiro[5.5]undecan-3-yl)-2-methoxy-5-(1-methyl-1H-pyrazol-4-yl)phenyl)pyrimidin-4-amine], the GI50 in experiment [1] and in experiment [2] was less than 100 nM each time. As to `COc1cc(N2C[C@H](C)O[C@@H](C)C2)c(-c2cnn(C)c2)cc1Nc1cc(N2OCC[C@@H]2c2cccc(F)c2F)ncn1` [Example 106, 6-((R)-3-(2,3-difluorophenyl)isoxazolidin-2-yl)-N-(4-((2S,6S)-2,6-dimethylmorpholino)-2-methoxy-5-(1-methyl-1H-pyrazol-4-yl)phenyl)pyrimidin-4-amine], in experiment [2], the GI50 fell in the range of 100 to 1000 nM. Take `COc1cc(N2C[C@@H](C)O[C@@H](C)C2)c(-c2cnn(C)c2)cc1Nc1cc(N2OCC[C@@H]2c2cccc(F)c2F)ncn1` [Example 107, 6-((R)-3-(2,3-difluorophenyl)isoxazolidin-2-yl)-N-(4-((2S,6R)-2,6-dimethylmorpholino)-2-methoxy-5-(1-methyl-1H-pyrazol-4-yl)phenyl)pyrimidin-4-amine]: the 50% growth inhibitory concentration (GI50) in experiment [2] lay in the range of 100 to 1000 nM. In the case of `COc1cc(N2CCO[C@H](C)C2)c(-c2cnn(C)c2)cc1Nc1cc(N2OCC[C@@H]2c2cccc(F)c2F)ncn1` [Example 108, 6-((R)-3-(2,3-difluorophenyl)isoxazolidin-2-yl)-N-(2-methoxy-5-(1-methyl-1H-pyrazol-4-yl)-4-((R)-2-methylmorpholino)phenyl)py-rimidin-4-amine], the GI50 in experiment [2] was in the range of 100 to 1000 nM.

For the molecule `COc1cc(N2CCC(C)(OC)CC2)c(-c2cnn(C)c2)cc1Nc1cc(N2OCC[C@@H]2c2cccc(F)c2F)ncn1` [Example 109, (R)-6-(3-(2,3-difluorophenyl)isoxazolidin-2-yl)-N-(2-methoxy-4-(4-methoxy-4-methylpiperidin-1-yl)-5-(1-methyl-1H-pyrazol-4-yl)phenyl)pyrimidin-4-amine], in experiment [2], the 50% growth inhibitory concentration (GI50) is less than 100 nM. The same measure, in the same setting: the value for `COc1cc(N2CCC(CN(C)C(C)(C)CF)CC2)c(-c2cnn(C)c2)cc1Nc1cc(N2OCC[C@@H]2c2cccc(F)c2F)ncn1` [Example 110, (R)-6-(3-(2,3-difluorophenyl)isoxazolidin-2-yl)-N-(4-(4-(((1-fluoro-2-methylpropan-2-yl)(methyl)amino)methyl)pi-peridin-1-yl)-2-methoxy-5-(1-methyl-1H-pyrazol-4-yl)phenyl)pyrimidin-4-amine] was 100 to 1000 nM; that for `COc1cc(N2CC3(CCOCC3)C2)c(-c2cnn(C)c2)cc1Nc1cc(N2OCC[C@@H]2c2cccc(F)c2F)ncn1` [Example 111, (R)-6-(3-(2,3-difluorophenyl)isoxazolidin-2-yl)-N-(2-methoxy-5-(1-methyl-1H-pyrazol-4-yl)-4-(7-oxa-2-azaspiro[3.5]nonan-2-yl)phenyl)pyrimidin-4-amine] was 100 to 1000 nM. Consider `CN1CCN(C2CCN(c3c(-c4cnn(C)c4)cc(Nc4cc(N5OCC[C@@H]5c5cccc(F)c5F)ncn4)c4c3CCO4)CC2)CC1` [Example 112, (R)-6-(3-(2,3-difluorophenyl)isoxazolidin-2-yl)-N-(5-(1-methyl-1H-pyrazol-4-yl)-4-(4-(4-methylpiperazin-1-yl)piperidin-1-yl)-2,3-dihydrobenzofuran-7-yl)pyrimidin-4-amine], for which the GI50 in experiment [2] was 100 to 1000 nM. `CN1CCN(c2c(-c3cnn(C)c3)cc(Nc3cc(N4OCC[C@@H]4c4cccc(F)c4F)ncn3)c3c2OCO3)CC1` [Example 113, (R)-6-(3-(2,3-difluorophenyl)isoxazolidin-2-yl)-N-(6-(1-methyl-1H-pyrazol-4-yl)-7-(4-methylpiperazin-1-yl)benzo[d][1,3]dioxol-4-yl)pyrimidin-4-amine]: the concentration for 50% growth inhibition (GI50) in experiment [2] was less than 100 nM.

By GI50 is commonly meant the concentration that inhibits growth by half.
